Consider 7 compounds from paper PMC6338836, “Structural basis for prodrug recognition by the SLC15 family of proton-coupled peptide transporters” (Proceedings of the National Academy of Sciences of the …, 2019).

Series [1] relates to PepTSh Y79F. Briefly: IC50 competition assay, PepTSh Y79F variant. It is filed as biochemical, Staphylococcus hominis.
In series [2] the test system is PepTSh Y41F. Briefly: IC50 competition assay, PepTSh Y41F variant. As to conditions: for IC50: PepTSh variant Y41F. It is filed as biochemical, Staphylococcus hominis.
Series [3] has as its target (UniProt Z9YNX0M2M8). Briefly: IC50 competition assay, PepTSh WT proteoliposomes. It is filed as biochemical, Staphylococcus hominis. As to conditions: competition for dipeptide uptake.
In series [4] the test system is PepTSh N167A. Briefly: IC50 competition assay, PepTSh N167A variant. It is filed as biochemical, Staphylococcus hominis.
Series [5] deals with PepT1. On the set-up: method as in PMID 12649372. As to conditions: cited from earlier work.
For series [6], the system named is PepTSh Y41A. In words: IC50 competition assay, PepTSh Y41A variant. It is filed as biochemical, Staphylococcus hominis. Conditions: PepTSh Y41 removed (Y41A).
The test system of series [7] is PepTSh. In words: IC50 competition assay, PepTSh WT proteoliposomes. Conditions: for recognition: competition with AlaAla: N- or C-terminally blocked peptides. It is filed as biochemical, Staphylococcus hominis.
The test system of series [8] is PepTSh N426A. Briefly: IC50 competition assay, PepTSh N426A variant. It is filed as biochemical, Staphylococcus hominis. Conditions: PepTSh N426 removed (N426A).
Series [9] relates to PepTSh Y163A. In words: IC50 competition assay, PepTSh Y163A variant. The class given is biochemical, Staphylococcus hominis. Conditions: PepTSh Y163 removed (Y163A).
On the set-up of series [10]: method as in PMID 23264448, PMID 9610386. As to conditions: cited from earlier work.
Series [11] relates to PepTSh N426L. In words: IC50 competition assay, PepTSh N426L variant. It is filed as biochemical, Staphylococcus hominis. Conditions: PepTSh N426 replaced with leucine (N426L).

Residues, ends and D or L forms follow the SMILES beside them.

In general, IC50 refers to the concentration that inhibits the measured activity by half. Take `C[C@H](N)C(=O)N[C@@H](C)C(=O)O` [Ala-Ala, dialanine] (H-Ala-Ala-OH): in [1] (PepTSh Y79F), the “effect of variant on transport compared with WT” value is “limited effect”. Besides, the half-inhibitory concentration (IC50) in [2] worked out at 866 µM.
`NCC(=O)CCC(=O)O` [5-aminolevulinic acid]: the IC50 is 10400 µM in series [3] and 2100 µM in series [5]. Besides, the “effect of variant on affinity / IC50 compared with WT” value in series [4] is reported as “unchanged”.
In the case of `CC(C)[C@H](N)C(=O)OCCOCn1cnc2c(=O)[nH]c(N)nc21` [valacyclovir], the “effect of variant on affinity compared with WT” value in [6] is listed as “little effect on the affinity”; in series [8], “improved affinity”; in [11], “negligible effect”. Besides, the IC50 in series [2] was 1300 µM; in [7] (competition for dipeptide uptake), 7400 µM. The “effect of variant on recognition” value in [9] is on record as “abrogated valacyclovir recognition”. The “effect of variant on affinity / IC50 compared with WT” value in [4] is recorded as “little effect on the affinity”. Besides, the oral bioavailability in series [10] is given as greater than 50%.
As to `CC(=O)N[C@@H](C)C(=O)N[C@@H](C)C(=O)O` [Ac-AA-OH] (Ac-Ala-Ala-OH), the “recognition: competition with AlaAla” value in [7] is “can no longer bind the”.
Take `Nc1nc2c(ncn2COCCO)c(=O)[nH]1` [acyclovir]: in series [10], the oral bioavailability is listed as 15%.
Regarding `C[C@H](N)C(=O)N[C@@H](C)C(=O)N[C@@H](C)C(=O)O` [Ala-Ala-Ala, trialanine], the IC50 in series [1] (PepTSh variant Y79F) is 5.3 µM. Moreover, the “effect of variant on IC50 compared with WT” value in [2] (PepTSh Y41F) is “no effect”.
`C[C@H](N)C(=O)N[C@@H](C)C(N)=O` [H-AA-NH2] (H-Ala-Ala-NH2): the “recognition: competition with AlaAla” value in series [7] was “can compete with AlaAla”.
